According to patent US8722849B2, “Polypeptides” (Novo Nordisk A/S, priority 2011, dated 2014):
Starred links: 1 amine or outer side, 2 acyl side, 3 side chain; linkers in the order of their positions; H or OH if unused. Positions of bridges follow the written chain, without caps; N, C: chain ends. Residues, ends and D or L forms follow the SMILES beside them. *: point of attachment. C20 diacid = O=C(O)CCCCCCCCCCCCCCCCCCC(=O)*; C18 diacid = O=C(O)CCCCCCCCCCCCCCCCC(=O)*; γGlu = O=C(O)[C@H](CCC(=O)[*:2])N[*:1]

Biological target: T1, human amylin receptor (amylin 3(a) receptor: human calcitonin receptor + RAMP-3) (Homo sapiens, UniProt O60896+P30988)
T1 construct: expressed in transfected cells; host or cells: BHK570
T1 sequence (P30988 25-474): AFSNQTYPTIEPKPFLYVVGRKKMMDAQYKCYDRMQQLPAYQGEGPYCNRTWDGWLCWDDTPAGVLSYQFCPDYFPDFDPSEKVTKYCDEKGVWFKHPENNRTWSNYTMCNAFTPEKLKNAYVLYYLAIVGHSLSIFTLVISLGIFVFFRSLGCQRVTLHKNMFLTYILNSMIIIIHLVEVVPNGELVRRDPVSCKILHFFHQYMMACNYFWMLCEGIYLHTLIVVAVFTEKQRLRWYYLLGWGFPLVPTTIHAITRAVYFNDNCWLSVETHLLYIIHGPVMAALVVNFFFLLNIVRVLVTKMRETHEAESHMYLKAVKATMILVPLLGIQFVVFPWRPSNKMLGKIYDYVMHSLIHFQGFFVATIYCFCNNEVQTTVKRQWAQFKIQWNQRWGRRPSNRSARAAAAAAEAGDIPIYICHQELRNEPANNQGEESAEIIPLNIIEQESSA
T1 sequence (O60896 24-148 partner): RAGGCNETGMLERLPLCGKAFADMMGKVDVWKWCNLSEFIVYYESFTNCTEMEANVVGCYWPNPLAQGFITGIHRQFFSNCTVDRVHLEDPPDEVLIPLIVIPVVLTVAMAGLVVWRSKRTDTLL
Assay: Assay (II)a functional CRE-luciferase assay, human amylin receptor
Type: cell-based
Details: Table 2; BHK amylin 3(a)-receptor/CRE-luc cells

Structure (SMILES)	EC50
CC[C@H](C)[C@H](NC(=O)[C@@H]1CCCN1C(=O)CNC(=O)[C@H](Cc1ccccc1)NC(=O)[C@H](CC(N)=O)NC(=O)[C@H](CC(N)=O)NC(=O)[C@H](CO)NC(=O)[C@H](CO)NC(=O)[C@H](Cc1c[nH]cn1)NC(=O)[C@H](Cc1c[nH]cn1)NC(=O)[C@H](CC(C)C)NC(=O)[C@H](Cc1ccccc1)NC(=O)[C@H](CCC(=O)O)NC(=O)[C@H](C)NC(=O)[C@H](CC(C)C)NC(=O)[C@H](CCCNC(=N)N)NC(=O)[C@H](CCC(N)=O)NC(=O)[C@@H](NC(=O)[C@H](C)NC(=O)[C@@H]1CSSC[C@H](NC(=O)[C@H](Cc2c[nH]cn2)NC(=O)[C@H](Cc2c[nH]cn2)NC(=O)[C@H](Cc2c[nH]cn2)NC(=O)CC[C@H](NC(=O)CCCCCCCCCCCCCCCCCCC(=O)O)C(=O)O)C(=O)N[C@@H](CC(N)=O)C(=O)N[C@@H]([C@@H](C)O)C(=O)N[C@@H](C)C(=O)N[C@@H]([C@@H](C)O)C(=O)N1)[C@@H](C)O)C(=O)N[C@@H](CC(C)C)C(=O)N1CCC[C@H]1C(=O)N1CCC[C@H]1C(=O)N[C@H](C(=O)N[C@@H](CC(N)=O)C(=O)N[C@H](C(=O)NCC(=O)N[C@@H](CO)C(=O)N[C@@H](CCCNC(=N)N)C(=O)N[C@H](C(=O)N[C@@H](Cc1ccc(O)cc1)C(N)=O)[C@@H](C)O)C(C)C)[C@@H](C)O [Example 21, N-alpha-[(S)-4-Carboxy-4-(19-carboxynonadecanoylamino)butyryl]-His-His-[His1,Glu14,His17,Arg35]-pramlintide] ({C20 diacid-γGlu}-HHHCNTATCATQRLAEFLHHSSNNFGPILPPTNVGSRTY-NH2; disulfide 4-9 (inferred))	0.192 nM
CC[C@H](C)[C@H](NC(=O)[C@@H]1CCCN1C(=O)CNC(=O)[C@H](Cc1ccccc1)NC(=O)[C@H](CC(N)=O)NC(=O)[C@H](CC(N)=O)NC(=O)[C@H](CO)NC(=O)[C@H](CO)NC(=O)[C@H](Cc1c[nH]cn1)NC(=O)[C@H](Cc1c[nH]cn1)NC(=O)[C@H](CC(C)C)NC(=O)[C@H](Cc1ccccc1)NC(=O)[C@H](CCC(=O)O)NC(=O)[C@H](C)NC(=O)[C@H](CC(C)C)NC(=O)[C@H](CCCNC(=N)N)NC(=O)[C@H](CCC(N)=O)NC(=O)[C@@H](NC(=O)[C@H](C)NC(=O)[C@@H]1CSSC[C@H](NC(=O)[C@H](Cc2c[nH]cn2)NC(=O)[C@H](Cc2c[nH]cn2)NC(=O)[C@H](Cc2c[nH]cn2)NC(=O)CC[C@H](NC(=O)CCCCCCCCCCCCCCCCCCC(=O)O)C(=O)O)C(=O)N[C@@H](CC(N)=O)C(=O)N[C@@H]([C@@H](C)O)C(=O)N[C@@H](C)C(=O)N[C@@H]([C@@H](C)O)C(=O)N1)[C@@H](C)O)C(=O)N[C@@H](CC(C)C)C(=O)N1CCC[C@H]1C(=O)N1CCC[C@H]1C(=O)N[C@H](C(=O)N[C@@H](CC(N)=O)C(=O)N[C@H](C(=O)NCC(=O)N[C@@H](CO)C(=O)N[C@@H](Cc1c[nH]cn1)C(=O)N[C@H](C(=O)N[C@@H](Cc1ccc(O)cc1)C(N)=O)[C@@H](C)O)C(C)C)[C@@H](C)O [Example 31, N-alpha-[(S)-4-Carboxy-4-(19-carboxynonadecanoylamino)butyryl]-His-His-[His1,Glu14,His17,His35]-pramlintide] ({C20 diacid-γGlu}-HHHCNTATCATQRLAEFLHHSSNNFGPILPPTNVGSHTY-NH2; disulfide 4-9 (inferred); C-terminus assumed)	0.164 nM
CC[C@H](C)[C@H](NC(=O)[C@@H]1CCCN1C(=O)CNC(=O)[C@H](Cc1ccccc1)NC(=O)[C@H](CC(N)=O)NC(=O)[C@H](CC(N)=O)NC(=O)[C@H](CO)NC(=O)[C@H](CO)NC(=O)[C@H](Cc1c[nH]cn1)NC(=O)[C@H](Cc1c[nH]cn1)NC(=O)[C@H](CC(C)C)NC(=O)[C@H](Cc1ccccc1)NC(=O)[C@H](CCC(=O)O)NC(=O)[C@H](C)NC(=O)[C@H](CC(C)C)NC(=O)[C@H](CCCNC(=N)N)NC(=O)[C@H](CCC(N)=O)NC(=O)[C@@H](NC(=O)[C@H](C)NC(=O)[C@@H]1CSSC[C@H](NC(=O)[C@H](Cc2c[nH]cn2)NC(=O)[C@H](Cc2c[nH]cn2)NC(=O)[C@H](Cc2c[nH]cn2)NC(=O)CC[C@H](NC(=O)CCCCCCCCCCCCCCCCCCC(=O)O)C(=O)O)C(=O)N[C@@H](Cc2c[nH]cn2)C(=O)N[C@@H]([C@@H](C)O)C(=O)N[C@@H](C)C(=O)N[C@@H]([C@@H](C)O)C(=O)N1)[C@@H](C)O)C(=O)N[C@@H](CC(C)C)C(=O)N1CCC[C@H]1C(=O)N1CCC[C@H]1C(=O)N[C@H](C(=O)N[C@@H](CC(N)=O)C(=O)N[C@H](C(=O)NCC(=O)N[C@@H](CO)C(=O)N[C@@H](Cc1c[nH]cn1)C(=O)N[C@H](C(=O)N[C@@H](Cc1ccc(O)cc1)C(N)=O)[C@@H](C)O)C(C)C)[C@@H](C)O [Example 32, N-alpha-[(S)-4-Carboxy-4-(19-carboxynonadecanoylamino)butyryl]-His-His-[His1,His3,Glu14,His17,His35]-pramlintide] ({C20 diacid-γGlu}-HHHCHTATCATQRLAEFLHHSSNNFGPILPPTNVGSHTY-NH2; disulfide 4-9 (inferred))	0.603 nM
CC[C@H](C)[C@H](NC(=O)[C@@H]1CCCN1C(=O)CNC(=O)[C@H](Cc1ccccc1)NC(=O)[C@H](CC(N)=O)NC(=O)[C@H](CC(N)=O)NC(=O)[C@H](CO)NC(=O)[C@H](CO)NC(=O)[C@H](Cc1c[nH]cn1)NC(=O)[C@H](Cc1c[nH]cn1)NC(=O)[C@H](CC(C)C)NC(=O)[C@H](Cc1ccccc1)NC(=O)[C@H](CCC(=O)O)NC(=O)[C@H](C)NC(=O)[C@H](CC(C)C)NC(=O)[C@H](CCCNC(=N)N)NC(=O)[C@H](CCC(N)=O)NC(=O)[C@@H](NC(=O)[C@H](C)NC(=O)[C@@H]1CSSC[C@H](NC(=O)[C@H](Cc2c[nH]cn2)NC(=O)CC[C@H](NC(=O)CCCCCCCCCCCCCCCCC(=O)O)C(=O)O)C(=O)N[C@@H](CC(N)=O)C(=O)N[C@@H]([C@@H](C)O)C(=O)N[C@@H](C)C(=O)N[C@@H]([C@@H](C)O)C(=O)N1)[C@@H](C)O)C(=O)N[C@@H](CC(C)C)C(=O)N1CCC[C@H]1C(=O)N1CCC[C@H]1C(=O)N[C@H](C(=O)N[C@@H](CC(N)=O)C(=O)N[C@H](C(=O)NCC(=O)N[C@@H](CO)C(=O)N[C@@H](CC(N)=O)C(=O)N[C@H](C(=O)N[C@@H](Cc1ccc(O)cc1)C(N)=O)[C@@H](C)O)C(C)C)[C@@H](C)O [Example 48, N-alpha-[(S)-4-Carboxy-4-(17-carboxyheptadecanoylamino)butyryl]-[His1,Glu14,His17]-pramlintide] ({C18 diacid-γGlu}-HCNTATCATQRLAEFLHHSSNNFGPILPPTNVGSNTY-NH2; disulfide 2-7 (inferred))	0.0425 nM
CC[C@H](C)[C@H](NC(=O)[C@@H]1CCCN1C(=O)CNC(=O)[C@H](Cc1ccccc1)NC(=O)[C@H](CC(N)=O)NC(=O)[C@H](CC(N)=O)NC(=O)[C@H](CO)NC(=O)[C@H](CO)NC(=O)[C@H](Cc1c[nH]cn1)NC(=O)[C@H](CCCNC(=N)N)NC(=O)[C@H](CC(C)C)NC(=O)[C@H](Cc1ccccc1)NC(=O)[C@H](CCC(=O)O)NC(=O)[C@H](C)NC(=O)[C@H](CC(C)C)NC(=O)[C@H](CCCNC(=N)N)NC(=O)[C@H](CCC(N)=O)NC(=O)[C@@H](NC(=O)[C@H](C)NC(=O)[C@@H]1CSSC[C@H](NC(=O)[C@H](CCCCN)NC(=O)[C@H](CCC(=O)O)NC(=O)CC[C@H](NC(=O)CCCCCCCCCCCCCCCCCCC(=O)O)C(=O)O)C(=O)N[C@@H](CC(N)=O)C(=O)N[C@@H]([C@@H](C)O)C(=O)N[C@@H](C)C(=O)N[C@@H]([C@@H](C)O)C(=O)N1)[C@@H](C)O)C(=O)N[C@@H](CC(C)C)C(=O)N1CCC[C@H]1C(=O)N1CCC[C@H]1C(=O)N[C@H](C(=O)N[C@@H](CC(N)=O)C(=O)N[C@H](C(=O)NCC(=O)N[C@@H](CO)C(=O)N[C@@H](Cc1c[nH]cn1)C(=O)N[C@H](C(=O)N[C@@H](Cc1ccc(O)cc1)C(N)=O)[C@@H](C)O)C(C)C)[C@@H](C)O [Example 58, N-alpha-[(S)-4-Carboxy-4-(19-carboxynonadecanoylamino)butyryl]-Glu-[Glu14,Arg17,His35]-pramlintide] ({C20 diacid-γGlu}-EKCNTATCATQRLAEFLRHSSNNFGPILPPTNVGSHTY-NH2; disulfide 3-8 (inferred); C-terminus assumed)	0.117 nM
CC[C@H](C)[C@H](NC(=O)[C@@H]1CCCN1C(=O)CNC(=O)[C@H](Cc1ccccc1)NC(=O)[C@H](CC(N)=O)NC(=O)[C@H](CC(N)=O)NC(=O)[C@H](CO)NC(=O)[C@H](CO)NC(=O)[C@H](Cc1c[nH]cn1)NC(=O)[C@H](CCCNC(=N)N)NC(=O)[C@H](CC(C)C)NC(=O)[C@H](Cc1ccccc1)NC(=O)[C@H](CCC(=O)O)NC(=O)[C@H](C)NC(=O)[C@H](CC(C)C)NC(=O)[C@H](CCCNC(=N)N)NC(=O)[C@H](CCC(N)=O)NC(=O)[C@@H](NC(=O)[C@H](C)NC(=O)[C@@H]1CSSC[C@H](NC(=O)[C@H](CCCCN)NC(=O)CC[C@H](NC(=O)CCCCCCCCCCCCCCCCC(=O)O)C(=O)O)C(=O)N[C@@H](CC(N)=O)C(=O)N[C@@H]([C@@H](C)O)C(=O)N[C@@H](C)C(=O)N[C@@H]([C@@H](C)O)C(=O)N1)[C@@H](C)O)C(=O)N[C@@H](CC(C)C)C(=O)N1CCC[C@H]1C(=O)N1CCC[C@H]1C(=O)N[C@H](C(=O)N[C@@H](CC(N)=O)C(=O)N[C@H](C(=O)NCC(=O)N[C@@H](CO)C(=O)N[C@@H](Cc1c[nH]cn1)C(=O)N[C@H](C(=O)N[C@@H](Cc1ccc(O)cc1)C(N)=O)[C@@H](C)O)C(C)C)[C@@H](C)O [Example 61, N-alpha-[(S)-4-Carboxy-4-(17-carboxyheptadecanoylamino)butyryl]-[Glu14,Arg17,His35]-pramlintide] ({C18 diacid-γGlu}-KCNTATCATQRLAEFLRHSSNNFGPILPPTNVGSHTY-NH2; disulfide 2-7 (inferred))	0.0675 nM
